# Laboratory results from patent US20110200624A1, “NOVEL PEPTIDES FOR USE IN TRANSFECTION” (MOLECULAR TRANSFER, INC., priority 2008, published 2011).
# Columns and labels:
# Assay in all cases: Transfection with β-galactosidase reporter plasmid pCMVSPORT-β-gal, β-gal activity (ONPG)
# Assay type in all cases: cell-based
# [1] = test system: PC12; conditions: PC12 cells; DMS lipid (1:1 DOPE), 1.0 μg plasmid DNA, 1.0 ug peptide; β-gal activity OD 405 nm
# [2] = test system: Human Fibroblast; conditions: DMS lipid (1:1 DOPE), 1.0 μg plasmid DNA, 1.0 ug peptide, β-gal activity OD 405 nm
# Experimental: (§1) Transfection of, NIH3T3, HepG2, Human Fibroblast, Jurkat and Cos-7 and with β-galactosidase reporter plasmid pCMV[…]SPORT-β-gal was carried out as follows:
# (§2) Cells were plated in 96-well plates with 100 μl of media containing 10% fetal calf serum the day before transfection such that a desired confluency (70%-95%) was achieved the following day. The following day DMS lipid (1:1 DOPE) and DNA/peptide were mixed in Opti-MEM to form DNA/lipid/peptide complexes. Complexes were formed by adding various amounts of lipid (1-6 μl) to 100 μl of Opti-MEM. Plasmid DNA (1.0 μg) was added to 100 μl Opti-MEM then 1.0 ug of each peptide was added to the DNA mixture and incubated for 10 minutes. The DNA/peptide and lipids solutions were then mixed to form DNA/peptide/lipid complexes. The complexes were incubated for an additional 15 minutes. After incubation 20 μl of each of the resulting complexes was added directly to the cells in 10% serum. Cells were incubated for an additional 16-24 hours to allow expression of the plasmid. Medium was removed and the cells were lysed in 100-200 μl of lysis buffer. The lysates (20 μl) were assayed for β-gal activity using the enzymatic substrate ONPG. Total activity was determined by reading the OD at 405 nm using a Bio-Rad Benchmark Microplate Spectrophotometer.
# [3] = test system: Jurkat; conditions: Jurkat cells; DMS lipid (1:1 DOPE), 1.0 μg plasmid DNA, 1.0 ug peptide; β-gal activity OD 405 nm
# Experimental: as §1, §2
# [4] = test system: NIH 3T3; conditions: NIH 3T3 cells; DMS lipid (1:1 DOPE), 1.0 μg plasmid DNA, 1.0 ug peptide; β-gal activity OD 405 nm
# Experimental: as §1, §2
# [5] = test system: HepG2; conditions: HepG2 cells; DMS lipid (1:1 DOPE), 1.0 μg plasmid DNA, 1.0 ug peptide; β-gal activity OD 405 nm
# Experimental: as §1, §2
Substance,Fold Ehancement over Lipid Alone [1],Fold Ehancement over Lipid Alone [2],Fold Ehancement over Lipid Alone [3],Fold Ehancement over Lipid Alone [4],Fold Ehancement over Lipid Alone [5]
(K)16YYCQQRSSYPYTFGG [Peptide #6],1.13 Fold,34 Fold,1.75 Fold,1.93 Fold,4.2 Fold
(K)16AARSPSYYRYDYGPYYAMDYD [Peptide #9],2.68 Fold,21.9 Fold,5.78 Fold,2.17 Fold,4.25 Fold
(K)16AAWDDSLGI [Peptide #3],2.88 Fold,12.9 Fold,4.5 Fold,1.5 Fold,1.9 Fold
(K)16NSRDSSGIQNV [Peptide #2],2.09 Fold,14.5 Fold,4.8 Fold,0.89 Fold,1.3 Fold
(K)16VELDSFDY [Peptide #4],2.5 Fold,11.7 Fold,4.75 Fold,1.65 Fold,1.2 Fold
(K)16YYCDIRLRDP [Peptide #1],1.8 Fold,3.7 Fold,4.56 Fold,1.7 Fold,0.97 Fold
(K)16YYCARSDGNYGYYYALDYDY [Peptide #8],0.37 Fold,19.9 Fold,1 Fold,1.86 Fold,1.6 Fold
(K)16DYYCAAWDDSLNGYSVF [Peptide #5],1.6 Fold,12 Fold,1.28 Fold,2.5 Fold,2 Fold
(K)16YYCLQSMEDPYTFGG [Peptide #7],0.91 Fold,29 Fold,1.47 Fold,1.46 Fold,3.3 Fold
(K)16YYCQQSYSTPWTFGQGTK [Peptide #10],1.4 Fold,22.7 Fold,2 Fold,2.1 Fold,2.5 Fold
